Reference: patent US20180079752A1, “BTK INHIBITORS” (MERCK SHARP & DOHME CORP., priority 2015, published 2018)

Target: T1, BTK enzyme (recombinant full-length BTK, hBTK) (Homo sapiens, UniProt Q06187)
T1 construct: recombinant protein from baculovirus-transfected Sf9 cells: full-length BTK, 6HIS-tag cleaved; 6HIS (cleaved yes); made in house; host or cells: baculovirus-transfected Sf9 cells
Test: Btk enzyme activity assay (LANCE TR-FRET)
Type: biochemical
Settings: 60 minute compound & enzyme incubation, 50 pM hBTK, 25 μM ATP, read-out: BTK binding IC50
Description: BTK enzymatic activity was determined with the LANCE (Lanthanide Chelate Excite) TR-FRET (Time-resolved fluorescence resonance energy transfer) assay. In this assay, the potency (IC50) of each compound was determined from an eleven point (1:3 serial dilution; final compound concentration range in assay from 1 μM to 0.017 nM) titration curve using the following outlined procedure. To each well of a black non-binding surface Corning 384-well microplate (Corning Catalog #3820), 5 nL of compound (2000 fold dilution in final assay volume of 10 μL) was dispensed, followed by the addition of 7.5 μL of 1× kinase buffer (50 mM Hepes 7.5, 10 mM MgCl2, 0.01% Brij-35, 1 mM EGTA, 0.05% BSA & 1 mM DTT) containing 5.09 pg/μL (66.67 pM) of BTK enzyme (recombinant protein from baculovirus-transfected Sf9 cells: full-length BTK, 6HIS-tag cleaved). Following a 60 minute compound & enzyme incubation, each reaction was initiated by the addition of 2.5 μL 1× kinase buffer containing 8 μM biotinylated “AS” peptide (Biotin-EQEDEPEGDYFEWLE-NH2), and 100 μM ATP. The final reaction in each well of 10 μL consists of 50 pM hBTK, 2 μM biotin-AS-peptide, and 25 μM ATP. Phosphorylation reactions were allowed to proceed for 120 minutes. Reactions were immediately quenched by the addition of 20 uL of 1× quench buffer (15 mM EDTA, 25 mM Hepes 7.3, and 0.1% Triton X-100) containing detection reagents (0.626 nM of LANCE-Eu-W1024-anti-phosphoTyrosine antibody, PerkinElmer and 86.8 nM of Streptavidin-conjugated Dylight 650, Dyomics/ThermoFisher Scientific). After 60 minutes incubation with detection reagents, reaction plates were read on a PerkinElmer EnVision plate reader using standard TR-FRET protocol. Briefly, excitation of donor molecules (Eu-chelate:anti-phospho-antibody) with a laser light source at 337 nm produces energy that can be transferred to Dylight-650 acceptor molecules if this donor:acceptor pair is within close proximity. Fluorescence intensity at both 665 nm (acceptor) and 615 nm (donor) are measured and a TR-FRET ratio calculated for each well (acceptor intensity/donor intensity). IC50 values were determined by 4 parameter robust fit of TR-FRET ratio values vs. (Log10) compound concentrations.

T1 sequence (Q06187 whole entry): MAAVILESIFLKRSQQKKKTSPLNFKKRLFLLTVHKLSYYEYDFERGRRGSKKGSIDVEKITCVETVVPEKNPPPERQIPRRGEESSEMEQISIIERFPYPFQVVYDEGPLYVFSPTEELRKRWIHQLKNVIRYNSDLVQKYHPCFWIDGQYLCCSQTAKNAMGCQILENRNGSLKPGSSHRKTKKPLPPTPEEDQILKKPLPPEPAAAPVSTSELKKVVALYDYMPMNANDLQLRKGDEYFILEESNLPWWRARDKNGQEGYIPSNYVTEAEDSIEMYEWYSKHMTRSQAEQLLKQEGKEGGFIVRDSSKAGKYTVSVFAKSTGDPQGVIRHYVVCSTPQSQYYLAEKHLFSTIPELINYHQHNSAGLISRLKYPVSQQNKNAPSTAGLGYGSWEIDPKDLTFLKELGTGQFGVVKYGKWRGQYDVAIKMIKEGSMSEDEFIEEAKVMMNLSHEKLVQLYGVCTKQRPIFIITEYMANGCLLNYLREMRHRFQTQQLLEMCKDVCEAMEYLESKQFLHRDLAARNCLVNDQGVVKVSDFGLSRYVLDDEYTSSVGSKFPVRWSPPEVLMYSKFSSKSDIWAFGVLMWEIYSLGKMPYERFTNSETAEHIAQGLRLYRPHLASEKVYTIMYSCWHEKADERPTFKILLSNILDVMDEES

SMILES | IC50
N#CN1CCC[C@@H](c2nc(-c3ccc(C(=O)Nc4cc(C(F)(F)F)ccn4)cc3)c3c(N)nccn23)C1 [Example 1, 4-{8-amino-3-[(3R)-1-cyanopiperidin-3-yl]imidazo[1,5-a]pyrazin-1-yl}-N-[4-(trifluoromethyl)pyridin-2-yl]benzamide] | 3.6 nM
N#CN1CCC[C@@H](c2nc(-c3ccc(C(=O)Nc4ccccn4)cc3)c3c(N)nccn23)C1 [Example 2, 4-{8-amino-3-[(3R)-1-cyanopiperidin-3-yl]imidazo[1,5-a]pyrazin-1-yl}-N-pyridin-2-ylbenzamide] | 1.5 nM
N#CN1CCC[C@H]1c1nc(-c2ccc(C(=O)Nc3ccccn3)cc2)c2c(N)nccn12 [Example 3, 4-{8-amino-3-[(2S)-1-cyanopyrrolidin-2-yl]imidazo[1,5-a]pyrazin-1-yl}-N-pyridin-2-ylbenzamide] | 60.3 nM
N#CN1CCC[C@H]1c1nc(-c2ccc(C(=O)Nc3cc(F)ccn3)cc2)c2c(N)nccn12 [Example 4, 4-{8-amino-3-[(2S)-1-cyanopyrrolidin-2-yl]imidazo[1,5-a]pyrazin-1-yl}-N-(4-fluoropyridin-2-yl)benzamide] | 49 nM
Cc1nccn2c([C@@H]3CCCN3C#N)nc(-c3ccc(C(=O)Nc4ccccn4)cc3)c12 [Example 5, 4-{3-[(2S)-1-cyanopyrrolidin-2-yl]-8-methylimidazo[1,5-a]pyrazin-1-yl}-N-pyridin-2-ylbenzamide] | 371 nM
N#CN1CCOC(c2nc(-c3ccc(C(=O)Nc4cc(C(F)(F)F)ccn4)cc3)c3c(N)nccn23)C1 (centres unmarked) [Example 6, 4-[8-amino-3-(4-cyanomorpholin-2-yl)imidazo[1,5-a]pyrazin-1-yl]-N-[4-(trifluoromethyl)pyridin-2-yl]benzamide] | 3.9 nM
N#CN1CCC[C@@H](c2nc(-c3ccc(C(=O)Nc4cc(C5CC5)ccn4)cc3)c3c(N)nccn23)C1 [Example 7, 4-{8-amino-3-[(3R)-1-cyanopiperidin-3-yl]imidazo[1,5-a]pyrazin-1-yl}-N-(4-cyclopropylpyridin-2-yl)benzamide] | 1.8 nM
Cc1nccn2c([C@@H]3CCCN(C#N)C3)nc(-c3ccc(C(=O)Nc4cc(C5CC5)ccn4)cc3)c12 [Example 8, 4-{3-[(3R)-1-cyanopiperidin-3-yl]-8-methylimidazo[1,5-a]pyrazin-1-yl}-N-(4-cyclopropylpyridin-2-yl)benzamide] | 46.8 nM
N#CN1CCC[C@H]1c1nc(-c2ccc(C(=O)Nc3cc(C4CC4)ccn3)cc2)c2c(N)nccn12 [Example 9, 4-{8-amino-3-[(2S)-1-cyanopyrrolidin-2-yl]imidazo[1,5-a]pyrazin-1-yl}-N-(4-cyclopropylpyridin-2-yl)benzamide] | 67.6 nM
C[C@H]1CC[C@@H](c2nc(-c3ccc(C(=O)Nc4ccccn4)cc3)c3c(N)nccn23)CN1C#N [Example 10, 4-{8-amino-3-[(3R,6S)-1-cyano-6-methylpiperidin-3-yl]imidazo[1,5-a]pyrazin-1-yl}-N-pyridin-2-ylbenzamide] | 3.1 nM
N#CN1CCO[C@@H](c2nc(-c3ccc(C(=O)Nc4cc(C(F)(F)F)ccn4)cc3)c3c(N)nccn23)C1 [Example 11, 4-{8-amino-3-[(2R)-4-cyanomorpholin-2-yl]imidazo[1,5-a]pyrazin-1-yl}-N-[4-(trifluoromethyl)pyridin-2-yl]benzamide] | 0.78 nM
N#CN1CCO[C@@H](c2nc(-c3ccc(C(=O)Nc4cc(C5CC5)ccn4)cc3)c3c(N)nccn23)C1 [Example 12, 4-{8-amino-3-[(2R)-4-cyanomorpholin-2-yl]imidazo[1,5-a]pyrazin-1-yl}-N-(4-cyclopropylpyridin-2-yl)benzamide] | 1 nM
N#CN1CCC[C@@H](c2nc(-c3ccc(C(=O)Nc4cc(C(F)(F)F)ccn4)cc3F)c3c(N)nccn23)C1 [Example 13, 4-{8-amino-3-[(3R)-1-cyanopiperidin-3-yl]imidazo[1,5-a]pyrazin-1-yl}-3-fluoro-N-[4-(trifluoromethyl)pyridin-2-yl]benzamide] | 0.36 nM
Cc1ccnc(NC(=O)c2ccc(-c3nc([C@@H]4CCCN(C#N)C4)n4ccnc(N)c34)cc2)c1 [Example 14, 4-{8-amino-3-[(3R)-1-cyanopiperidin-3-yl]imidazo[1,5-a]pyrazin-1-yl}-N-(4-methylpyridin-2-yl)benzamide] | 0.24 nM
COc1ccnc(NC(=O)c2ccc(-c3nc([C@@H]4CCCN(C#N)C4)n4ccnc(N)c34)cc2)c1 [Example 15, 4-{8-amino-3-[(3R)-1-cyanopiperidin-3-yl]imidazo[1,5-a]pyrazin-1-yl}-N-(4-methoxypyridin-2-yl)benzamide] | 0.41 nM
N#CN1CCC[C@@H](c2nc(-c3ccc(C(=O)Nc4cc(C(F)F)ccn4)cc3)c3c(N)nccn23)C1 [Example 16, 4-{8-amino-3-[(3R)-1-cyanopiperidin-3-yl]imidazo[1,5-a]pyrazin-1-yl}-N-[4-(difluoromethyl)pyridin-2-yl]benzamide] | 0.29 nM
N#CN1CCC[C@@H](c2nc(-c3ccc(C(=O)Nc4cc(C(F)(F)F)ccn4)cc3)c3c(N)ncc(Cl)n23)C1 [Example 17, 4-{8-amino-5-chloro-3-[(3R)-1-cyanopiperidin-3-yl]imidazo[1,5-a]pyrazin-1-yl}-N-[4-(trifluoromethyl)pyridin-2-yl]benzamide] | 0.19 nM
COCc1cnc(N)c2c(-c3ccc(C(=O)Nc4cc(C(F)(F)F)ccn4)cc3F)nc([C@@H]3CCCN(C#N)C3)n12 [Example 18, 4-{8-amino-3-[(3R)-1-cyanopiperidin-3-yl]-5-(methoxymethyl)imidazo[1,5-a]pyrazin-1-yl}-3-fluoro-N-[4-(trifluoromethyl)pyridin-2-yl]benzamide] | 0.92 nM
CCOc1cc(C(=O)Nc2cc(C(F)(F)F)ccn2)ccc1-c1nc([C@@H]2CCCN(C#N)C2)n2ccnc(N)c12 [Example 19, 4-{8-amino-3-[(3R)-1-cyanopiperidin-3-yl]imidazo[1,5-a]pyrazin-1-yl}-3-ethoxy-N-[4-(trifluoromethyl)pyridin-2-yl]benzamide] | 0.68 nM
C[C@H]1CO[C@@H](c2nc(-c3ccc(C(=O)Nc4cc(C(F)(F)F)ccn4)cc3F)c3c(N)ncc(Cl)n23)CN1C#N [Example 20, 4-{8-amino-5-chloro-3-[(2R,5S)-4-cyano-5-methylmorpholin-2-yl]imidazo[1,5-a]pyrazin-1-yl}-3-fluoro-N-[4-(trifluoromethyl)pyridin-2-yl]benzamide] | 0.48 nM
CCOc1cc(C(=O)Nc2cc(C(F)(F)F)ccn2)ccc1-c1nc([C@H]2CN(C#N)[C@@H](C)CO2)n2c(Cl)cnc(N)c12 [Example 21, 4-{8-amino-5-chloro-3-[(2R,5S)-4-cyano-5-methylmorpholin-2-yl]imidazo[1,5-a]pyrazin-1-yl}-3-ethoxy-N-[4-(trifluoromethyl)pyridin-2-yl]benzamide] | 1.5 nM
COc1cc(C(=O)Nc2cc(C(F)(F)F)ccn2)ccc1-c1nc([C@H]2CN(C#N)CCO2)n2ccnc(N)c12 [Example 22, 4-{8-amino-3-[(2R)-4-cyanomorpholin-2-yl]imidazo[1,5-a]pyrazin-1-yl}-3-methoxy-N-[4-(trifluoromethyl)pyridin-2-yl]benzamide] | 0.6 nM
CCOc1cc(C(=O)Nc2cc(C(F)(F)F)ccn2)ccc1-c1nc([C@@H]2CC[C@H](C)N(C#N)C2)n2c(Cl)cnc(N)c12 [Example 23, 4-{8-amino-5-chloro-3-[(3R,6S)-1-cyano-6-methylpiperidin-3-yl]imidazo[1,5-a]pyrazin-1-yl}-3-ethoxy-N-[4-(trifluoromethyl)pyridin-2-yl]benzamide] | 2.2 nM
